Like-named read-outs stand apart in the source and are kept apart here.

The data set concerns PP6C. Nature of the data set: Western blot of PP6C and gamma-globin in primary human cells after RNP electroporation of SpCas9 with guide RNA. In kind it is cell-based. From the text:
FIGS. 2A-2D provide data regarding validation of PP6C as a regulator of HbF in human primary cells utilizing RNP-based electroporation of SpCas9 with guide RNA targeting PP6C. FIG. 2A depicts protein levels by Western blot of PP6C and gamma-globin with 6 independent guide RNA targeting PP6C or a non-targeting guide RNA. […] These specific guide RNAs were utilized for further primary human cell testing. FIG. 2B provides a graph of gamma globin mRNA levels in four independent biological replicates of human primary cells treated with PP6C sgRNA #1 or #3; a guide RNA targeting the BCL11A +58 enhancer (positive control), or a non-targeting guide RNA (negative control). FIG. 2C provides representative flow cytometric plots of HbF staining (top) and compiled F-cell flow cytometric staining in four independent biological replicates (bottom) in cells treated with PP6C sgRNA, BCL11A +58 sgRNA, or non-targeting sgRNA. […] FIG. 2D are representative cation-exchange high performance liquid chromatography (HPLC) tracings (top) and complied HPLC HbF+ quantitation in two independent biological replicates (bottom) in cells treated with PP6C sgRNA, BCL11A +58 sgRNA, or non-targeting sgRNA. HbF elutes as a distinct peak (grey box), followed by adult hemoglobin (HbA). Percentages are quantified as HbF percentage of total globins (HbF+HbA).
Cells were transduced with one of the six guide RNAs targeting PP6C, a guide RNA targeting BCL11A exon 2 (positive control; BCL11A is a repressor of HbF expression), or non-targeting guide RNA or untreated control (negative controls).

On to “PP6C sgRNA1: CRISPR sgRNA targeting PP6C, sequence GCACATCAACTAGTGCACGA (SEQ ID NO: 5) (listed as DNA, chemistry not given here)”, for which the PP6C protein level result was “significantly depleted” and the gamma-globin protein levels entry is “significantly increased”. Where the note is “listed as PP6C guide RNA #1”, the gamma-globin protein levels result was “significant induction”.
“PP6C sgRNA3: CRISPR sgRNA targeting PP6C, sequence GGAACTGCCCGGAATAACTT (SEQ ID NO: 7) (listed as DNA, chemistry not given here)”: the PP6C protein level result is “significantly depleted” and the gamma-globin protein levels result is listed as “significantly increased”. Moreover, under “listed as PP6C guide RNA #3”, the gamma-globin protein levels result was “significant induction”.
Turning to “PP6C sgRNA4: CRISPR sgRNA targeting PP6C, sequence TCCTCGGGGACTGATAGCCC (SEQ ID NO: 8) (listed as DNA, chemistry not given here)”, the PP6C protein level entry was “significantly depleted” and the gamma-globin protein levels result is reported as “significant induction”.

Values taken from patent US20230045199A1, “COMPOSITIONS AND METHODS FOR HEMOGLOBIN PRODUCTION” (THE CHILDREN'S HOSPITAL OF PHILADELPHIA, priority 2019, published 2023).
